Source: patent US20190374533A1, “COMPOUNDS AND METHODS FOR INHIBITING NHE-MEDIATED ANTIPORT IN THE TREATMENT OF DISORDERS ASSOCIATED WITH FLUID RETENTION OR SALT OVERLOAD AND GASTROINTESTINAL TRACT DISORDERS” (Ardelyx, Inc., priority 2008, published 2019)
Structures can show the parent of a compound that is named as a salt. Where two headings read alike, the source gives them in different places.

Experiments:
fecal water content = assay: Pharmacodynamic model: effect of test compounds on fecal water content; assay type: in vivo, rat; conditions: female Sprague Dawley rats, 3 mg/kg oral, feces collected 16 hrs; for % Fecal water: mean of 6
[1] = Determination of compound remaining in feces; assay type: in vivo, rat; conditions: 0.1 mg/kg oral gavage; for recovery in 72-hour fecal samples: three rats; for dose excreted: Sprague-Dawley, rat, faeces, po, 0.1 mg/kg, read-out: % Recovery ± SD from 72-hour fecal samples
Description: Sprague-Dawley rats were orally gavaged with test article. A low dose of compound (0.1 mg/kg) was selected so that feces would remain solid and practical to collect. For both Examples 202 and 203, three rats were dosed, and following dosage of compounds, the rats were placed in metabolic cages for 72 hours. After 72 hours, fecal samples were recovered and dried for 48 hours. Dried fecal samples were ground to a powdered from, and for each rat, 10 replicates of 50 mg samples were extracted with acetonitrile. Insoluble materials were removed by centrifugation and supernatants analyzed by LC/MS/MS and compared against a standard curve to determine compound concentration. The amount of compound actually dosed was determined by LC/MS/MS analysis of the dosing solutions. The total amount of compound present in the 72-hour fecal samples was compared to the total amount of compound dosed, and reported as percentage of total dose recovered.

human NHE3 = molecular target: T1, human NHE3 (Homo sapiens, UniProt P48764); assay: Cell-based assay of NHE-3 activity (pre-incubation inhibition), human; conditions: human Preincubation assay; for IC50: PS120 fibroblasts expressing human NHE3 and NHERF2, 0-30 μM test compound
T1 construct: host or cells: PS120 fibroblasts
T1 sequence (P48764 26-834): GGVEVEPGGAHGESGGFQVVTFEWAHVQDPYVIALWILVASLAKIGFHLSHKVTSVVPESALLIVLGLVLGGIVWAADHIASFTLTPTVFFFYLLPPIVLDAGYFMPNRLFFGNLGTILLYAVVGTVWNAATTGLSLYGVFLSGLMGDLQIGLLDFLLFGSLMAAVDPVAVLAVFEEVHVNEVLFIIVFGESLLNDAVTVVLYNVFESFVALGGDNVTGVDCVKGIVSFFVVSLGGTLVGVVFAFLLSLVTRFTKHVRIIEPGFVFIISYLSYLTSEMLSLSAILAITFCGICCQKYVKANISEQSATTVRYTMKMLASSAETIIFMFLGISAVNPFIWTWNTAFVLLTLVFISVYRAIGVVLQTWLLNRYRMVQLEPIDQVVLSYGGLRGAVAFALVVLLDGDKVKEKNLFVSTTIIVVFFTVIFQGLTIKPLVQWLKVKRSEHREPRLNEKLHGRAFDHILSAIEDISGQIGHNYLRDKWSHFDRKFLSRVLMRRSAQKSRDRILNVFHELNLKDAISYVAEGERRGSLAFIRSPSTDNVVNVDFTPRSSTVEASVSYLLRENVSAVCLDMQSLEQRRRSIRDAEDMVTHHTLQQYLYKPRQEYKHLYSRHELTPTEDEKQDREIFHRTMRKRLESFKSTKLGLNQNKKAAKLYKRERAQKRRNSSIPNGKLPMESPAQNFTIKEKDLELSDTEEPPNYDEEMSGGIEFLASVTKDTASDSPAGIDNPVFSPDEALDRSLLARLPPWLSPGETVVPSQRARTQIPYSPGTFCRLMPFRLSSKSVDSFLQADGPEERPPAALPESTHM
T1 sequence (Q99653 2-195 partner limits assumed): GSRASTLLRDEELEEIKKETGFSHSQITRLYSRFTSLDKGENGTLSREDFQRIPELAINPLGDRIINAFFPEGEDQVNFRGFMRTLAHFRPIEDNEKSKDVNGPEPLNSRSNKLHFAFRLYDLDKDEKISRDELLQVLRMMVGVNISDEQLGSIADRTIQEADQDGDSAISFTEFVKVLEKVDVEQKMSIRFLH
Description: Rat and human NHE-3-mediated Na^+-dependent H^+ antiport was measured using a modification of the pH sensitive dye method originally reported by Paradiso (Proc. Natl. Acad. Sci. USA. (1984) 81(23): 7436-7440). PS120 fibroblasts stably expressing human NHE3 and NHERF2 were obtained from Mark Donowitz (Baltimore, Md.). Opossum kidney (OK) cells were obtained from the ATCC and propagated per their instructions. The rat NHE-3 gene (GenBank M85300) was introduced into OK cells via electroporation, and cells were seeded into 96 well plates and grown overnight. Medium was aspirated from the wells then incubated for 30 min at 37° C. with NH4Cl-HEPES buffer (20 mM NH4Cl, 80 mM NaCl, 50 mM HEPES, 5 mM KCl, 2 mM CaCl2, 1 mM MgCl2, pH 7.4) containing 5 μM BCECF-AM. Cells were washed once with Ammonium free, Na^+-free HEPES (100 mM choline, 50 mM HEPES, 10 mM glucose, 5 mM KCl, 2 mM CaCl2, 1 mM MgCl2, pH 7.4) and incubated in the same buffer for 10 minutes at room temperature to lower intracellular pH with 0-30 μM test compound. […] Changes in intracellular pH were monitored using a FLIPR Tetra® (Molecular Devices, Sunnyvale, Calif.) by excitation at λex 439 to 505 nm, and measuring BCECF fluorescence at λem 538 nm. The initial rate of the fluorescence ratio change was used as a measure of NHE-mediated Na^+/H^+ activity, and reported as the change in fluorescence ratio per minute.

| SMILES | % Fecal water (% of control) (fecal water content) | % Fecal water (fecal water content) [%] | recovery in 72-hour fecal samples [1] | dose excreted ([1]; Rat 1) [%] | dose excreted ([1]; Rat 2) [%] | dose excreted ([1]; Rat 3) [%] | % inhibition (human NHE3) | IC50 (human NHE3) [nM] |
| --- | --- | --- | --- | --- | --- | --- | --- | --- |
| CN1Cc2c(Cl)cc(Cl)cc2[C@H](c2cccc(S(=O)(=O)NCCOCCOCCNC(=O)Nc3ccc(NC(=O)NCCOCCOCCNS(=O)(=O)c4cccc([C@@H]5CN(C)Cc6c(Cl)cc(Cl)cc65)c4)cc3)c2)C1 (single isomer, unassigned) [Example 203, (S or R)—N,N′-(2,2′-(2,2′-(2,2′-(1,4-phenylenebis(azanediyl))bis(oxomethylene)bis(azanediyl)bis(ethane-2,1-diyl))bis(oxy)bis(ethane-2,1-diyl))bis(oxy)bis(ethane-2,1-diyl))bis(3-((S or R)-6,8-dichloro-2-methyl-1,2,3,4-tetrahydroisoquinolin-4-yl)benzenesulfonamide) bis-hydrochloride salt] | 130% of control | 61 | near quantitative recovery | 100 ± 6.7 | 75.8 ± 8.2 | 104 ± 7.1 | C (>70%) | < 100 |
| CN1Cc2c(Cl)cc(Cl)cc2[C@H](c2cccc(S(=O)(=O)NCCOCCOCCNC(=O)NCCCCNC(=O)NCCOCCOCCNS(=O)(=O)c3cccc([C@@H]4CN(C)Cc5c(Cl)cc(Cl)cc54)c3)c2)C1 (single isomer, unassigned) [Example 202, (S or R)—N,N′-(10,17-dioxo-3,6,21,24-tetraoxa-9,11,16,18-tetraazahexacosane-1,26-diyl)bis(3-((S)-6,8-dichloro-2-methyl-1,2,3,4-tetrahydroisoquinolin-4-yl)benzenesulfonamide) bis-hydrochloride salt] | 134% of control | 63 | near quantitative recovery | 93.8 ± 11.8 | 90.5 ± 5.5 | 92.4 ± 10.6 | C (>70%) | < 100 |
